Results: PubChem BioAssay AID328 (DTP/NCI, 2004)
“And” between values parts separate entries of the source, which are not always exact repeats. Equal entries are not always repeated. Inconclusive results and toxic doses are left out.

System: BDF1 mice, P388 leukemia ip, median survival T/C
Assay: NCI In Vivo Anticancer Drug Screen. Data for tumor model P388 Leukemia (intraperitoneal) in B6D2F1 (BDF1) mice
Settings: endpoint: median survival time, higher = longer survival
Experimental: The antitumor activity of compounds was measured in mice bearing transplantable tumors. Survival or tumor size were measured and the results are expressed as the measurement made in the treated group (T) divided by the measurement made in the vehicle treated control group (C). The tumor model used in this assay is P388 Leukemia (intraperitoneal) in B6D2F1 (BDF1) mice

[1] = dose: 12.5 mg/kg/injection, schedule: Q01DX009 (ip), vehicle: saline
[2] = dose: 25.0 mg/kg/injection, schedule: Q01DX009 (ip), vehicle: saline
[3] = dose: 50.0 mg/kg/injection, schedule: Q01DX009 (ip), vehicle: saline
[4] = dose: 100.0 mg/kg/injection, schedule: Q01DX009 (ip), vehicle: saline
[5] = dose: 200.0 mg/kg/injection, schedule: Q01DX009 (ip), vehicle: saline
[6] = dose: 100.0 mg/kg/injection, schedule: Q04DX003 (ip), vehicle: Klucel (hydroxypropylcellulose) (HPC)
[7] = dose: 100.0 mg/kg/injection, schedule: Q01DX009 (ip), vehicle: saline with Tween-80
[8] = dose: 200.0 mg/kg/injection, schedule: Q01DX009 (ip), vehicle: saline with Tween-80
[9] = dose: 400.0 mg/kg/injection, schedule: Q01DX009 (ip), vehicle: saline with Tween-80
[10] = dose: 100.0 mg/kg/injection, schedule: Q04DX003 (ip), vehicle: saline
[11] = dose: 200.0 mg/kg/injection, schedule: Q04DX003 (ip), vehicle: saline
[12] = dose: 400.0 mg/kg/injection, schedule: Q04DX003 (ip), vehicle: saline
[13] = dose: 50.0 mg/kg/injection, schedule: Q01DX009 (ip), vehicle: saline with Tween-80
[14] = dose: 100.0 mg/kg/injection, schedule: Q04DX003 (ip), vehicle: saline with Tween-80
[15] = dose: 200.0 mg/kg/injection, schedule: Q04DX003 (ip), vehicle: saline with Tween-80
[16] = dose: 400.0 mg/kg/injection, schedule: Q04DX003 (ip), vehicle: saline with Tween-80

For `CCCCC[C@H](CN(C)C)[C@H](O)/C=C/c1ccc(Cl)cc1`, the T/C [1] was 101 % of control, the T/C [2] was 112 % of control and the T/C [3] was 108 % of control.

In the case of `N#Cc1cn[nH]c1N`, the T/C [3] is reported as 100 % of control, the T/C [4] is reported as 109 % of control and the T/C [5] is reported as 98 % of control.

With `CCOC12CC(OC(=O)N1)C(C)C1OC1(C)C(OC(=O)C(C)N(C)C(C)=O)CC(=O)N(C)c1cc(cc(OC)c1Cl)C/C(C)=C/C=CC2OC` (configuration not stated) the T/C (dose: 1.6 micrograms/kg/injection, schedule: Q01DX009 (ip), vehicle: saline + alcohol) was 99 % of control, the T/C (dose: 3.1 micrograms/kg/injection, schedule: Q01DX009 (ip), vehicle: saline + alcohol) was 99 % of control and the T/C (dose: 6.2 micrograms/kg/injection, schedule: Q01DX009 (ip), vehicle: saline + alcohol) was 99 % of control. The T/C (dose: 12.5 micrograms/kg/injection, schedule: Q01DX009 (ip), vehicle: saline + alcohol) was 101 % of control, the T/C (dose: 25.0 micrograms/kg/injection, schedule: Q01DX009 (ip), vehicle: saline + alcohol) was 116 % of control and the T/C (dose: 50.0 micrograms/kg/injection, schedule: Q01DX009 (ip), vehicle: saline + alcohol) was 98 % of control. For the same compound, the T/C (dose: 100.0 micrograms/kg/injection, schedule: Q01DX009 (ip), vehicle: saline + alcohol) was 105 % of control, the T/C (dose: 200.0 micrograms/kg/injection, schedule: Q01DX009 (ip), vehicle: saline + alcohol) was 98 % of control and the T/C (dose: 400.0 micrograms/kg/injection, schedule: Q01DX009 (ip), vehicle: saline + alcohol) was 100 % of control.

`O=C(O)c1ccccc1O.O=C(O)c1ccccc1O.[O]=[V]` was tested, and the T/C (dose: 8.0 mg/kg/injection, schedule: Q01DX010 (ip), vehicle: carboxymethylcellulose (CMC)) was 90 % of control and the T/C (dose: 16.0 mg/kg/injection, schedule: Q01DX010 (ip), vehicle: carboxymethylcellulose (CMC)) was 100 % of control.

With `COc1cc2ccc(CC(=O)NCCc3ccc4c(c3)OCO4)cc2cc1OC` the T/C [6] was 100 % of control, the T/C (dose: 200.0 mg/kg/injection, schedule: Q04DX003 (ip), vehicle: Klucel (hydroxypropylcellulose) (HPC)) was 90 % of control and the T/C (dose: 400.0 mg/kg/injection, schedule: Q04DX003 (ip), vehicle: Klucel (hydroxypropylcellulose) (HPC)) was 90 % of control.

`CS(=O)(=O)OCC(O)C(O)COS(C)(=O)=O` (configuration not stated) was tested, and the T/C (dose: 50.0 mg/kg/injection, schedule: Q01DX010 (ip), vehicle: saline) was 109 % of control, the T/C [7] was 91 % of control and the T/C (dose: 100.0 mg/kg/injection, schedule: Q01DX010 (ip), vehicle: saline) was 109 % of control. The T/C [8] was 100 % of control, the T/C (dose: 200.0 mg/kg/injection, schedule: Q01DX010 (ip), vehicle: saline) was 100 % of control and the T/C [9] was 87 % of control. For the same compound, the T/C (dose: 400.0 mg/kg/injection, schedule: Q01DX010 (ip), vehicle: saline) was 209 % of control and the T/C (dose: 800.0 mg/kg/injection, schedule: Q01DX010 (ip), vehicle: saline) was 163 % of control.

With `Cc1ccc(C=C(C(=O)CCN(C)C)C(=O)CCN(C)C)cc1` the T/C (dose: 50.0 mg/kg/injection, schedule: Q01DX005 (ip), vehicle: saline) was 87 % of control, the T/C (dose: 100.0 mg/kg/injection, schedule: Q01DX005 (ip), vehicle: saline) was 109 % of control and the T/C (dose: 200.0 mg/kg/injection, schedule: Q01DX005 (ip), vehicle: saline) was 119 % of control.

With `O=[N+]([O-])C(CO)(CO)CO` the T/C [10] was 95 % of control, the T/C [11] was 100 % of control and the T/C [12] was 100 % of control.

`CCOC1=C(N2CC2)C(=O)C(OCC)=C(N2CC2)C1=O` was tested, and the T/C (dose: 0.07 mg/kg/injection, schedule: Q01DX009 (ip), vehicle: saline with Tween-80) was 95 % of control, the T/C (dose: 0.25 mg/kg/injection, schedule: Q01DX009 (ip), vehicle: saline) was 165 % of control and the T/C (dose: 0.25 mg/kg/injection, schedule: Q04DX003 (ip), vehicle: saline) was 109 % of control. For the same compound, the T/C (dose: 0.3 mg/kg/injection, schedule: Q01DX009 (ip), vehicle: saline with Tween-80) was 122 % of control, the T/C (dose: 0.5 mg/kg/injection, schedule: Q01DX009 (ip), vehicle: saline) was 152 % of control and 190 % of control and the T/C (dose: 0.5 mg/kg/injection, schedule: Q04DX003 (ip), vehicle: saline) was 154 % of control. For the same compound, the T/C (dose: 0.6 mg/kg/injection, schedule: Q01DX009 (ip), vehicle: saline with Tween-80) was 153 % of control, the T/C (dose: 0.63 mg/kg/injection, schedule: Q04DX003 (ip), vehicle: saline) was 122 % of control and the T/C (dose: 1.0 mg/kg/injection, schedule: Q01DX009 (ip), vehicle: saline) was 245 % of control and 195 % of control. The T/C (dose: 1.0 mg/kg/injection, schedule: Q04DX003 (ip), vehicle: saline) was 200 % of control, the T/C (dose: 2.0 mg/kg/injection, schedule: Q01DX009 (ip), vehicle: saline) was 242 % of control and 105 % of control and the T/C (dose: 2.5 mg/kg/injection, schedule: Q04DX003 (ip), vehicle: saline) was 172 % of control. The T/C (dose: 4.0 mg/kg/injection, schedule: Q01DX009 (ip), vehicle: saline) was 114 % of control.

In the case of `CCCCCCCN1C=CCC(S(=O)(=O)N2CCOCC2)=C1`, the T/C [13] is reported as 109 % of control, the T/C [7] is reported as 99 % of control and the T/C [8] is reported as 109 % of control.

With `O=C(O)C(CCCCC1CCCCC1)CCC1CCCCC1` (configuration not stated) the T/C (dose: 50.0 mg/kg/injection, schedule: Q01DX001 (ip), vehicle: saline with Tween-80) was 100 % of control, the T/C (dose: 100.0 mg/kg/injection, schedule: Q01DX001 (ip), vehicle: saline with Tween-80) was 100 % of control and the T/C (dose: 200.0 mg/kg/injection, schedule: Q01DX001 (ip), vehicle: saline with Tween-80) was 100 % of control.

For `NC(=O)C(c1ccccc1)N1CCCCC1` (configuration not stated), the T/C (dose: 6.25 mg/kg/injection, schedule: Q01DX009 (ip), vehicle: Klucel (hydroxypropylcellulose) (HPC)) was 109 % of control, the T/C (dose: 12.5 mg/kg/injection, schedule: Q01DX009 (ip), vehicle: Klucel (hydroxypropylcellulose) (HPC)) was 95 % of control and the T/C (dose: 25.0 mg/kg/injection, schedule: Q01DX009 (ip), vehicle: Klucel (hydroxypropylcellulose) (HPC)) was 95 % of control. For the same compound, the T/C (dose: 25.0 mg/kg/injection, schedule: Q04DX003 (ip), vehicle: Klucel (hydroxypropylcellulose) (HPC)) was 104 % of control, the T/C (dose: 50.0 mg/kg/injection, schedule: Q01DX009 (ip), vehicle: Klucel (hydroxypropylcellulose) (HPC)) was 91 % of control and the T/C (dose: 50.0 mg/kg/injection, schedule: Q04DX003 (ip), vehicle: Klucel (hydroxypropylcellulose) (HPC)) was 104 % of control. For the same compound, the T/C [6] was 108 % of control.

For `O=c1[n-]cc(F)c(=O)[nH]1.O=c1[n-]cc(F)c(=O)[nH]1.[NH2-].[NH2-].[Pt+4]`, the T/C [4] was 100 % of control, the T/C [10] was 120 % of control and 104 % of control and the T/C [5] was 120 % of control. For the same compound, the T/C [11] was 113 % of control and the T/C [12] was 100 % of control.

`O=[N+]([O-])c1ccc(N2CCOCC2)c2c1no[n+]2[O-]` was tested, and the T/C (dose: 6.25 mg/kg/injection, schedule: Q01DX009 (ip), vehicle: saline) was 95 % of control, the T/C [1] was 100 % of control and the T/C [2] was 108 % of control. The T/C (dose: 32.0 mg/kg/injection, schedule: Q04DX003 (ip), vehicle: saline with Tween-80) was 150 % of control and the T/C (dose: 64.0 mg/kg/injection, schedule: Q04DX003 (ip), vehicle: saline with Tween-80) was 160 % of control.

In the case of `CCOC(=O)C1C2OC(=O)C(C(=O)C2N=Nc2ccc(-c3ccc(N=NC4C(=O)C5C(=O)OC4C(C(=O)OCC)C5C4CC=CCC4)cc3)cc2)C1C1CC=CCC1` (configuration not stated), the T/C [7] is reported as 109 % of control, the T/C [14] is reported as 110 % of control and the T/C [8] is reported as 100 % of control. For the same compound, the T/C [15] was 105 % of control, the T/C [9] was 109 % of control and the T/C [16] was 115 % of control.

In the case of `O=C(O)c1cc(Br)ccc1OCc1ccc(Cl)cc1`, the T/C [14] is reported as 106 % of control, the T/C [15] is reported as 99 % of control and the T/C [16] is reported as 110 % of control.

With `O=[N+]([O-])c1ccc(S/N=C\c2ccccc2)c([N+](=O)[O-])c1` the T/C (dose: 12.5 mg/kg/injection, schedule: Q01DX009 (ip), vehicle: saline with Tween-80) was 107 % of control, the T/C (dose: 25.0 mg/kg/injection, schedule: Q01DX009 (ip), vehicle: saline with Tween-80) was 105 % of control and the T/C [13] was 105 % of control.
